Key:
[1] = target: human histamine H1 receptor (Homo sapiens, UniProt P35367); experiment: In vitro human histamine H1 receptor binding experiment ([3H]pyrilamine); settings: HEK293A cells stably expressing human histamine H1 receptor, [3H]pyrilamine 3 nmol/L, room temperature 60 minutes
Procedure, shortened: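 HEK293A cells stably expressing human H1 receptor (3×10^5 cells/well) incubated 60 min at room temperature with test substance and 3 nmol/L [3H]pyrilamine in 50 mmol/L Tris-HCl pH 7.5, 0.1% BSA. Filtration and scintillation counting; nonspecific binding with 30 μmol/L pyrilamine.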

[2] = system: histamine-induced vascular hyperpermeability reaction; experiment: Rat histamine-induced vascular hyperpermeability reaction (in vivo antihistamine action); settings: SD male rat, oral administration 1 hour before intracutaneous histamine, leaked Evans Blue pigment
cerebral H1 receptor = target: T1, cerebral H1 receptor (Mus musculus, UniProt P70174); experiment: Murine cerebral H1 receptor occupying content (ex vivo); type: in vivo
T1 construct: the entire brain, except for cerebellum and medulla oblongatae, was rapidly excised; from tissue; host or cells: brain homogenate (without cerebellum and medulla oblongata) of orally dosed ICR male mice
T1 sequence (P70174 whole entry): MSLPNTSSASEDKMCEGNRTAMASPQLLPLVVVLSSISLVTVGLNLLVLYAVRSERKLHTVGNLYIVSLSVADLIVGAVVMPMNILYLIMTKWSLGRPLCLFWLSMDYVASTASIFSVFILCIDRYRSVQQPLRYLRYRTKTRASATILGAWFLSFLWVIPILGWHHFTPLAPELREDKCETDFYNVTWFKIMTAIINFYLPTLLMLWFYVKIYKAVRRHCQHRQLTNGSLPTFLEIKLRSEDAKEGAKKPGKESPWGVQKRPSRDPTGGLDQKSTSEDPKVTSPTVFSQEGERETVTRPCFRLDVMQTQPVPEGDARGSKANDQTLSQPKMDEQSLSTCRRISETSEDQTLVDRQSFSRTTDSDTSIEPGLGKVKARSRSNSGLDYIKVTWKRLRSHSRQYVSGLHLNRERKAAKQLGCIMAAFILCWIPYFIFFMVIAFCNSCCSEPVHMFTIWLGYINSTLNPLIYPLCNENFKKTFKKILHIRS

human histamine H1 receptor, sequence (P35367 whole entry): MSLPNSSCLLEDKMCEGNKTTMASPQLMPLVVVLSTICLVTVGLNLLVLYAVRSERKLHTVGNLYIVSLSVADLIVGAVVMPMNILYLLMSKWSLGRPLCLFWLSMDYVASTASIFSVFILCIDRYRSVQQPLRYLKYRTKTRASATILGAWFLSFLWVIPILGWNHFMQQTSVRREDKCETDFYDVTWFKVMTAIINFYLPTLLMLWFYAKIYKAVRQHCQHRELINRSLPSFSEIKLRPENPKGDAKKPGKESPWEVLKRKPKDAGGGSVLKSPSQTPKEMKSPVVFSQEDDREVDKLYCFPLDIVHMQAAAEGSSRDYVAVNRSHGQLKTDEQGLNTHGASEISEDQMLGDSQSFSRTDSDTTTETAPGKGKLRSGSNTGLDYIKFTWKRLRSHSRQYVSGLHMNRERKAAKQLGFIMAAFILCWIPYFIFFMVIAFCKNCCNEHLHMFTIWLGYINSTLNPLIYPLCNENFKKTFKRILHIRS

melting point [°C] | SMILES | IC50 [1] [nM] | ED50 [2] [mg/kg] | ED50 (cerebral H1 receptor; ICR male mouse, oral administration, brain excised after 1 hour, 3H-pyrilamine binding in brain homogenate, larger = lower brain transfer, read-out: ID50 (the source's name)) [mg/kg] | ID50 (mg/kg)/ ED50 (mg/kg) (cerebral H1 receptor; ID50 of cerebral receptor binding test (Table 20) divided by ED50 of vascular hyperpermeability test (Table 19))
– | COC(=O)Cc1ccc2c(c1)C(=C1CCN(CCSC)CC1)c1sccc1CO2.Cl [Compound 200, Methyl {4-[1-(2-methylsulfanylethyl)piperidin-4-ylidene]-4,10-dihydro-9-oxa-3-thiabenzo[f]azulen-6-yl}acetate hydrochloride] | 7.83 | ~0.3 | 53.4 | 178.0
141 to 142 | CN1CCC(=C2c3ccccc3CCc3sc(Br)cc32)CC1 [Compound 212, 4-(2-Bromo-9,10-dihydro-1-thiabenzo[f]azulen-4-ylidene)-1-methylpiperidine] | – | – | – | –

— patent US8377967B2, “Piperidine derivative” (Nippon Zoki Pharmaceutical Co., Ltd., priority 2008, dated 2013)
